One series can be described thus: Human plasma stability. Type of series: in vitro ADME. As to conditions: Method 2 (human plasma), 37° C., read-out: Plasma stability t1/2. As for the experimental part:
Method 2: Human Plasma Stability
(§1) The compounds of the present invention (A-8, A-9, A-14, A-19, A-35, A-36) and MPS, used as a standard substance, were each dissolved in DMSO and a PBS buffer solution to a concentration of 30 mM, and then mixed in human plasma (Biochemed, 752PR—SC-PMG) to a final concentration of 300 μM (final 1.0% DMSO) and 600 μM of the compounds and MPS, respectively. The reaction of the mixed solution in plasma was initiated in a constant temperature incubator at 37° C. Before the reaction and on certain days after the reaction, the above samples were aliquoted in an amount of 100 μL, and 200 μL of ACN was added to terminate the reaction, mixed, and then vortexed for about 1 minute, and then centrifuged at 4° C. for 15 minutes at 14,000 rpm to precipitate plasma proteins. Each supernatant obtained by centrifugation was collected and quantitatively analyzed using the HPLC method.
(§2) The results of measuring the plasma half-life of the compounds of the present invention using Methods 1 to 4 above are shown in Table 3.

The next series can be described thus: Rat plasma stability. Type of series: in vitro ADME. The conditions noted are these: Method 3 (rat plasma), 37° C., read-out: Plasma stability t1/2. As for the experimental part: Method 3: Rat Plasma Stability
as §1, with “(A-19,” for “(A-8, A-9, A-14, A-19, A-35,”, “rat” for “human”, “031-APSC-PMG)” for “752PR—SC-PMG)”
as §2

Series [1] is described as follows: Chemical stability in PBS buffer solution (pH 7.4). The conditions noted are these: PBS buffer solution pH 7.4, 37° C., HPLC; read-out: Chemical stability t1/2. Type of series: physicochemical. How it is done: The compounds of the present invention (A-5, A-8, A-9, A-11, A-12, A-14, A-15, A-16, A-19, A-23, A-24, A-35 and A-36) were each dissolved in DMSO to a concentration of 10 mM and then mixed with a PBS buffer solution (pH 7.4) to prepare as a solution having a concentration of 500 μM (5% DMSO). MPS, used as a standard substance, was also prepared as a solution having a concentration of 500 μM in a PBS buffer solution. 420 μL of a PBS buffer solution and 140 μL of each of 500 μM compounds of the present invention and MPS were mixed to prepare a total of 700 μL of reaction solution. The reaction of the mixed solution was initiated in a constant temperature incubator at 37° C. The reaction solution was aliquoted in an amount of 70 μL at 0 minutes before the reaction and at certain times after the reaction, and the remaining compounds of the present invention or MPS or the liberated MMAF were quantitatively analyzed using the HPLC method. […] In addition, the remaining amount of Compound A-19 in a PBS buffer solution (pH 7.4) according to the incubation time is shown in FIG. 4.

The nature of series [2]: Beagle dog plasma stability. Type of series: in vitro ADME. As to conditions: Method 4 (beagle dog plasma), 37° C., read-out: Plasma stability t1/2. How it is done: Method 4: Beagle Dog Plasma Stability
as §1, with “(A-19,” for “(A-8, A-9, A-14, A-19, A-35,”, “beagle dog” for “human”, “014-APSC-PMG)” for “752PR—SC-PMG)”
as §2

The nature of the next series: Mouse plasma stability. Type of series: in vitro ADME. The conditions noted are these: Method 1 (mouse plasma), 37° C., read-out: Plasma stability t1/2. As for the experimental part:
Method 1: Mouse Plasma Stability
as §1, with “(A-5,” for “(A-8,”, “mouse” for “human”, “029-APSC-PMG)” for “752PR—SC-PMG)”, “acetonitrile (ACN, Sigma, SA-271004-1L)” for “ACN”, “centrifuged (Beckman, B30150)” for “centrifuged”
as §2

Numbered stars: 1 amine (or outer) side, 2 acyl side, 3 side chain; on linkers, the order of the positions; unused ones are H or OH. Square brackets hold non-standard residues; d marks the D form. Peptide text beside a SMILES is read from it. * marks the point of attachment. ξ: configuration not given here. X2 = C#CCC(OC(=O)*)c1ccc(O[C@@H]2O[C@H](CO)[C@H](O)[C@H](O)[C@H]2O)c2cc(C(=O)O)oc12; X3 = C#CCC(OC(=O)*)c1ccc(O[C@@H]2O[C@H](CO)[C@H](O)[C@H](O)[C@H]2O)c2cc(C(=O)O)sc12; X1 = O=C(O)CCc1cc2c(O[C@@H]3O[C@H](CO)[C@H](O)[C@H](O)[C@H]3O)ccc(COC(=O)*)c2s1; Dil(5ξ) = CCC(C)[C@@H]([C@@H](CC(=O)[*:2])OC)N(C)[*:1]; Dolaproine = CO[C@@H]([C@@H]1CCCN1)[C@@H](C)C(=O)O; NMeV = CN[C@H](C(=O)O)C(C)C; ξF = NC(Cc1ccccc1)C(=O)O

`C#CCC(OC(=O)N(C)[C@H](C(=O)N[C@H](C(=O)N(C)[C@@H](C(C)CC)[C@@H](CC(=O)N1CCC[C@H]1[C@H](OC)[C@@H](C)C(=O)N[C@H](C)[C@@H](O)c1ccccc1)OC)C(C)C)C(C)C)c1ccc(O[C@@H]2O[C@H](C(=O)O)[C@H](O)[C@H](O)[C@H]2O)c2cc(CCC(=O)O)[se]c12` (some centres unmarked) [Compound A-36]: the half-life at 300 µM (in the series “Human plasma stability”; in “Rat plasma stability”; in series [2]; in the series “Mouse plasma stability”) was above 168 h throughout. The half-life at 100 µM in series [1] is above 168 h.

Turning to `C#CCC(OC(=O)N(C)[C@H](C(=O)N[C@H](C(=O)N(C)[C@@H](C(C)CC)[C@@H](CC(=O)N1CCC[C@H]1[C@H](OC)[C@@H](C)C(=O)NC(Cc1ccccc1)C(=O)O)OC)C(C)C)C(C)C)c1ccc(O[C@@H]2O[C@H](CO)[C@H](O)[C@H](O)[C@H]2O)c2cc(C(=O)O)sc12` (some centres unmarked) [Compound A-11] (X3-[NMeV]V[Dil(5ξ)][Dolaproine][ξF]-OH), in series [1], the half-life at 100 µM was above 168 h.

For `CCC(C)[C@@H]([C@@H](CC(=O)N1CCC[C@H]1[C@H](OC)[C@@H](C)C(=O)NC(Cc1ccccc1)C(=O)O)OC)N(C)C(=O)[C@@H](NC(=O)[C@H](C(C)C)N(C)C(=O)OCc1ccc(O[C@@H]2O[C@H](CO)[C@H](O)[C@H](O)[C@H]2O)c2cc(CCC(=O)O)sc12)C(C)C` (some centres unmarked) [Compound A-5] (X1-[NMeV]V[Dil(5ξ)][Dolaproine][ξF]-OH), in series [1], the half-life at 100 µM is above 168 h. Also, the half-life at 300 µM in the series “Mouse plasma stability” was above 168 h.

In the case of `C#CCC(OC(=O)N(C)[C@H](C(=O)N[C@H](C(=O)N(C)[C@@H](C(C)CC)[C@@H](CC(=O)N1CCC[C@H]1[C@H](OC)[C@@H](C)C(=O)NC(Cc1ccccc1)C(=O)O)OC)C(C)C)C(C)C)c1ccc(O[C@@H]2O[C@H](CO)[C@H](O)[C@H](O)[C@H]2O)c2cc(C(=O)O)oc12` (some centres unmarked) [Compound A-15] (X2-[NMeV]V[Dil(5ξ)][Dolaproine][ξF]-OH), the half-life at 100 µM in series [1] was above 168 h.

As to `C#CCC(OC(=O)N(C)[C@H](C(=O)N[C@H](C(=O)N(C)[C@@H](C(C)CC)[C@@H](CC(=O)N1CCC[C@H]1[C@H](OC)[C@@H](C)C(=O)NC(Cc1ccccc1)C(=O)O)OC)C(C)C)C(C)C)c1ccc(O[C@@H]2O[C@H](CO)[C@H](O)[C@H](O)[C@H]2O)c2cc(CCC(=O)O)sc12` (some centres unmarked) [Compound A-12], in series [1], the half-life at 100 µM is above 168 h.

In the case of `C#CCC(OC(=O)N(C)[C@H](C(=O)N[C@H](C(=O)N(C)[C@@H](C(C)CC)[C@@H](CC(=O)N1CCC[C@H]1[C@H](OC)[C@@H](C)C(=O)NC(Cc1ccccc1)C(=O)O)OC)C(C)C)C(C)C)c1ccc(O[C@@H]2O[C@H](CO)[C@H](O)[C@H](O)[C@H]2O)c2cc(COC(=O)N(C)[C@H](C(=O)N[C@H](C(=O)N(C)[C@@H](C(C)CC)[C@@H](CC(=O)N3CCC[C@H]3[C@H](OC)[C@@H](C)C(=O)NC(Cc3ccccc3)C(=O)O)OC)C(C)C)C(C)C)oc12` (some centres unmarked) [Compound A-35], the half-life at 300 µM in “Human plasma stability” and in the series “Mouse plasma stability” was above 168 h each time. Also, the half-life at 100 µM in series [1] is above 168 h.

On to `C#CCC(OC(=O)N(C)[C@H](C(=O)N[C@H](C(=O)N(C)[C@@H](C(C)CC)[C@@H](CC(=O)N1CCC[C@H]1[C@H](OC)[C@@H](C)C(=O)NC(Cc1ccccc1)C(=O)O)OC)C(C)C)C(C)C)c1ccc(O[C@@H]2O[C@H](CO)[C@H](O)[C@H](O)[C@H]2O)c2cc(CCCC(=O)O)oc12` (some centres unmarked) [Compound A-16], for which, in series [1], the half-life at 100 µM is above 168 h.

In the case of `CCC(C)[C@@H]([C@@H](CC(=O)N1CCC[C@H]1[C@H](OC)[C@@H](C)C(=O)NC(Cc1ccccc1)C(=O)O)OC)N(C)C(=O)[C@@H](NC(=O)[C@H](C(C)C)N(C)C(=O)OCc1cc2c(O[C@@H]3O[C@H](CO)[C@H](O)[C@H](O)[C@H]3O)ccc(COC(=O)N(C)[C@H](C(=O)N[C@H](C(=O)N(C)[C@@H](C(C)CC)[C@@H](CC(=O)N3CCC[C@H]3[C@H](OC)[C@@H](C)C(=O)NC(Cc3ccccc3)C(=O)O)OC)C(C)C)C(C)C)c2o1)C(C)C` (some centres unmarked) [Compound A-24], in series [1], the half-life at 100 µM is above 168 h.

On to `CCC(C)[C@@H]([C@@H](CC(=O)N1CCC[C@H]1[C@H](OC)[C@@H](C)C(=O)NC(Cc1ccccc1)C(=O)O)OC)N(C)C(=O)[C@@H](NC(=O)[C@H](C(C)C)N(C)C(=O)OCc1ccc(O[C@@H]2O[C@H](CO)[C@H](O)[C@H](O)[C@H]2O)c2cc(Cn3cc(COCCOCCOCCOC)nn3)sc12)C(C)C` (some centres unmarked) [Compound A-8], for which, in the series “Human plasma stability”, the half-life at 300 µM was above 168 h. In series [1], the half-life at 100 µM was above 168 h.

Source of the values: patent US20260248936A1, “NOVEL LINKER COMPOUND AND LIGAND-DRUG CONJUGATE THEREFOR” (priority 2022, published 2026).
